Drawing on ChEMBL document CHEMBL1145407, “Structure-activity relationships of alpha-ketooxazole inhibitors of fatty acid amide hydrolase” (J Med Chem, 2007), this text covers Ki, Ratio IC50 and Selectivity ratio for 80 compounds.

A word on the Ki: it is a dissociation constant, usually derived from enzyme kinetics or from competition with a known ligand.

The target of test [1] is T1, Fatty-acid amide hydrolase 1 (Rattus norvegicus, UniProt P97612).
T1 sequence (P97612 whole entry): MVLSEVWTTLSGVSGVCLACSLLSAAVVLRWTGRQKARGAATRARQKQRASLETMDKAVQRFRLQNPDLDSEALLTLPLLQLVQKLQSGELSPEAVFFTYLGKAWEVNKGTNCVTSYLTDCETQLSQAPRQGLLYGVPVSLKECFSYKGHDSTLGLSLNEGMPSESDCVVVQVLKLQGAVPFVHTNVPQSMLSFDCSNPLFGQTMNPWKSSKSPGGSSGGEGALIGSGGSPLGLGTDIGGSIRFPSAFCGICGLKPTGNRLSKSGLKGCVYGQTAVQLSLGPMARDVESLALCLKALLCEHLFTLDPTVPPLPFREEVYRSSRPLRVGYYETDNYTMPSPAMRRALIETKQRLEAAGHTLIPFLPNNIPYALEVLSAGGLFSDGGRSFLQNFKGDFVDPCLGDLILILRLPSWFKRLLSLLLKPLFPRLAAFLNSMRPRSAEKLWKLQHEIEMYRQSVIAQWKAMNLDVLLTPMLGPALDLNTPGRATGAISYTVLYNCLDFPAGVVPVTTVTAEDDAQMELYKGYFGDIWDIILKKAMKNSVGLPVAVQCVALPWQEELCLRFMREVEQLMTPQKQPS
Briefly: Inhibition of rat recombinant FAAH expressed in Escherichia coli.

Test [2] is described as follows: Selectivity for rat recombinant FAAH over KIAA1363.
Test [3] can be described thus: Selectivity for rat recombinant FAAH over TGH.

Some results are limits rather than exact numbers.

With `O=C(CCCCCCc1cccc(F)c1)c1ncc(-c2ccccn2)o1`, the Ki in test [1] worked out at 2.2 nM. Besides, the Ratio IC50 was greater than 10000 in test [2] and 100 in test [3].

Consider `O=C(CCCCCCc1ccccc1F)c1ncc(-c2ccccn2)o1`, for which, in test [1], the Ki came to 1.7 nM. Also, the results for the Ratio IC50 in test [2] and in test [3] were greater than 3300 and 17, respectively.

As for `CC(C)(C)OC(=O)Nc1ccc(C#CCCCCC(=O)c2ncc(-c3ccccn3)o2)cc1`, the Ki in test [1] amounted to 23 nM.

Take `O=C(CCCCS(=O)(=O)Cc1ccccc1)c1ncc(-c2ccccn2)o1`: in test [1], the Ki is greater than 10000 nM.

`O=C(CCCCCS(=O)(=O)c1ccccc1)c1ncc(-c2ccccn2)o1`: the Ki in test [1] was determined as 6000 nM.

Regarding `O=C(CCCCCCc1ccc2ccccc2c1)c1ncc(-c2ccccn2)o1`, the Ki in test [1] amounted to 11 nM. In addition, the results for the Ratio IC50 in test [2] and in test [3] were greater than 2500 and 0.5, respectively.

In the case of `O=C(CCCCCOc1ccccc1)c1ncc(-c2ccccn2)o1`, the Ki in test [1] is 14 nM.

For `O=C(CCCCC(O)Cc1ccccc1)c1ncc(-c2ccccn2)o1` (stereo unspecified), the Ki in test [1] amounted to 200 nM.

As for `O=C(CCCCC#Cc1cccnc1)c1ncc(-c2ccccn2)o1`, the Ki in test [1] came out at 300 nM.

For `O=C(c1ncc(-c2ccccn2)o1)C1CCCC1`, in test [1], the Ki stood at 2500 nM.

In the case of `O=C(CCCCC#Cc1ccncc1)c1ncc(-c2ccccn2)o1`, in test [1], the Ki was 150 nM.

Turning to `O=C(CCc1cccc(OCc2ccccc2)c1)c1ncc(-c2ccccn2)o1`, the Ratio IC50 is greater than 1000 in test [2] and 20 in test [3].

Turning to `O=C(CCCCC#Cc1ccccc1[N+](=O)[O-])c1ncc(-c2ccccn2)o1`, in test [1], the Ki stood at 17 nM.

As for `O=C(CCCCCCc1ccccc1C(F)(F)F)c1ncc(-c2ccccn2)o1`, the Ki in test [1] worked out at 4 nM. The Ratio IC50 in test [2] is greater than 3300; in test [3], 230.

Take `O=C(CCl)c1ncc(-c2ccccn2)o1`: in test [1], the Ki is 800 nM.

As to `O=C(c1ncc(-c2ccccn2)o1)C1CC1`, the Ki in test [1] is greater than 50000 nM.

Turning to `O=C(CCCCSCc1ccccc1)c1ncc(-c2ccccn2)o1`, in test [1], the Ki worked out at 25 nM.

Take `O=C(CCc1ccc(OCc2ccccc2)cc1)c1ncc(-c2ccccn2)o1`: the Ratio IC50 in test [2] was greater than 100000; in test [3], 8000.

Take `COc1ccc(CCCCCCC(=O)c2ncc(-c3ccccn3)o2)cc1`: in test [1], the Ki was determined as 6.2 nM. Besides, the Selectivity ratio in test [2] was greater than 5000. Besides, the Ratio IC50 in test [3] turned out to be 250.

For `O=C(CCCCC#Cc1cccc(C(F)(F)F)c1)c1ncc(-c2ccccn2)o1`, the Ki in test [1] is 10 nM.

Consider `COc1ccccc1CCCCCCC(=O)c1ncc(-c2ccccn2)o1`, for which the Ki in test [1] came to 5.8 nM. The Ratio IC50 is greater than 10000 in test [2] and 500 in test [3].

As to `O=C(CCCCC#Cc1ccccc1F)c1ncc(-c2ccccn2)o1`, the Ki in test [1] came out at 8 nM.

In the case of `O=C(CCCCC[S+]([O-])c1ccccc1)c1ncc(-c2ccccn2)o1` (stereo unspecified), the Ki in test [1] worked out at 1000 nM.

For `Nc1ccc(CCCCCCC(=O)c2ncc(-c3ccccn3)o2)cc1`, the Ki in test [1] is 3 nM. In addition, the values for the Ratio IC50 in test [2] and in test [3] were greater than 25000 and 750, respectively.

Turning to `CC(C)(C)OC(=O)Nc1ccc(CCCCCCC(=O)c2ncc(-c3ccccn3)o2)cc1`, in test [1], the Ki was found to be 5.6 nM.

Regarding `COC(=O)c1cccc(C#CCCCCC(=O)c2ncc(-c3ccccn3)o2)c1`, in test [1], the Ki came to 30 nM.

On to `OC(CCCCCc1ccccc1)C(O)c1ncc(-c2ccccn2)o1` (stereo unspecified), for which the Ki in test [1] turned out to be 2000 nM.

As to `COC(=O)c1ccc(C#CCCCCC(=O)c2ncc(-c3ccccn3)o2)cc1`, the Ki in test [1] came out at 25 nM.

For the compound `O=C(CCCCC#Cc1ccc([N+](=O)[O-])cc1)c1ncc(-c2ccccn2)o1`, the Ki in test [1] stood at 31 nM.

Turning to `O=C(CSCCCCc1ccccc1)c1ncc(-c2ccccn2)o1`, the Ki in test [1] turned out to be 4 nM.

As to `CC(C)(C)OC(=O)Nc1cccc(CCCCCCC(=O)c2ncc(-c3ccccn3)o2)c1`, the Ki in test [1] was 2.4 nM.

Take `O=C(CCc1ccc(OCc2ccccc2)cc1)c1nc2ncccc2o1`: the results for the Ratio IC50 in test [2] and in test [3] were 7000 and 130, respectively.

Turning to `CS(=O)(=O)c1ccc(CCCCCCC(=O)c2ncc(-c3ccccn3)o2)cc1`, the Ki in test [1] was found to be 19 nM. The Ratio IC50 in test [2] is greater than 2000; in test [3], 40.

Take `CS(=O)(=O)c1cccc(CCCCCCC(=O)c2ncc(-c3ccccn3)o2)c1`: in test [1], the Ki was 1.3 nM. Further, the Ratio IC50 in test [2] was greater than 25000; in test [3], 1000.

Turning to `O=C(CCCCCCc1cccnc1)c1ncc(-c2ccccn2)o1`, the inhibitory constant (Ki) in test [1] was determined as 32 nM. The Ratio IC50 in test [2] is greater than 5000; in test [3], 50.

`O=C(CCc1ccc(COc2ccccc2)cc1)c1ncc(-c2ccccn2)o1`: the Ratio IC50 in test [2] was greater than 50000; in test [3], 1000.

For the compound `O=C(CCCCC#Cc1cccc(F)c1)c1ncc(-c2ccccn2)o1`, the inhibitory constant (Ki) in test [1] turned out to be 3.2 nM.

Consider `O=C(COCCCCc1ccccc1)c1ncc(-c2ccccn2)o1`, for which the inhibitory constant (Ki) in test [1] amounted to 60 nM. Also, the Ratio IC50 in test [2] is greater than 58; in test [3], 34.

Regarding `Nc1cccc(CCCCCCC(=O)c2ncc(-c3ccccn3)o2)c1`, the Ki in test [1] is 30 nM.

Regarding `O=C(CCCCc1ccccc1)CC(=O)c1ncc(-c2ccccn2)o1`, in test [1], the Ki is greater than 2000 nM.

`O=C(CCCCCCc1ccccc1C(=O)O)c1ncc(-c2ccccn2)o1`: in test [1], the Ki is greater than 600 nM.

`O=C(CCCCCCc1cccc(Cl)c1)c1ncc(-c2ccccn2)o1`: the Ratio IC50 in test [2] is greater than 50000; in test [3], 250.

As for `O=C(O)c1ccc(CCCCCCC(=O)c2ncc(-c3ccccn3)o2)cc1`, the Ki in test [1] was greater than 600 nM.

Take `O=C(CCc1ccc(Cc2ccccc2)cc1)c1ncc(-c2ccccn2)o1`: the figures for the Ratio IC50 in test [2] and in test [3] were greater than 33000 and 300, respectively.

For the compound `O=C(CCCCC#Cc1ccc(C(F)(F)F)cc1)c1ncc(-c2ccccn2)o1`, the Ki in test [1] is 75 nM.

As to `O=C(CCCCC#Cc1cccc([N+](=O)[O-])c1)c1ncc(-c2ccccn2)o1`, the Ki in test [1] stood at 4.8 nM.

Regarding `O=C(CCCCOCc1ccccc1)c1ncc(-c2ccccn2)o1`, the inhibition constant (Ki) in test [1] turned out to be 55 nM.

As to `CN(CCCC(=O)c1ncc(-c2ccccn2)o1)CCc1ccccc1`, the Ki in test [1] was 3500 nM.

As to `CC(C)(C)OC(=O)Nc1cccc(C#CCCCCC(=O)c2ncc(-c3ccccn3)o2)c1`, in test [1], the Ki was found to be 12 nM.

As to `O=C(CCCCCC(O)c1ccccc1)c1ncc(-c2ccccn2)o1` (stereo unspecified), in test [1], the Ki is 35 nM.

Turning to `COC(=O)CCCCC(=O)c1ncc(-c2ccccn2)o1`, in test [1], the inhibitory constant (Ki) came out at 1800 nM.

Consider `O=C(CCCC[S+]([O-])Cc1ccccc1)c1ncc(-c2ccccn2)o1` (stereo unspecified), for which, in test [1], the Ki worked out at 2500 nM.

In the case of `COC(=O)CCC(=O)c1ncc(-c2ccccn2)o1`, the Ki in test [1] was greater than 100000 nM.

For `CN(CCCc1ccccc1)CCC(=O)c1ncc(-c2ccccn2)o1`, in test [1], the Ki was 200 nM.

For `CN(CCCCc1ccccc1)CC(O)c1ncc(-c2ccccn2)o1` (stereo unspecified), the Ki in test [1] is greater than 100000 nM.

As to `O=C(CS(=O)(=O)CCCCc1ccccc1)c1ncc(-c2ccccn2)o1`, the Ki in test [1] was 20000 nM.

In the case of `O=C(CCCCC(=O)c1ncc(-c2ccccn2)o1)Nc1ccccc1`, in test [1], the Ki came out at 3100 nM.

Consider `O=C(CCCCC#Cc1ccccc1)c1ncc(-c2ccccn2)o1`, for which the Ki in test [1] is 25 nM.

On to `CN(CCCCC(=O)c1ncc(-c2ccccn2)o1)Cc1ccccc1`, for which the Ki in test [1] turned out to be 200 nM.

As for `O=C(CCCCC#Cc1cccc(Cl)c1Cl)c1ncc(-c2ccccn2)o1`, the inhibition constant (Ki) in test [1] is 5 nM.

With `O=C(CCCOCCc1ccccc1)c1ncc(-c2ccccn2)o1`, the inhibitory constant (Ki) in test [1] was 63 nM.

Turning to `O=C(CCCC(O)CCc1ccccc1)c1ncc(-c2ccccn2)o1` (stereo unspecified), in test [1], the inhibition constant Ki was determined as 1500 nM.

`O=C(CCc1ccc(Sc2ccccc2)cc1)c1ncc(-c2ccccn2)o1`: the values for the Ratio IC50 in test [2] and in test [3] were greater than 50000 and 30, respectively.

`O=C(CC(O)CCCCc1ccccc1)c1ncc(-c2ccccn2)o1` (stereo unspecified): the Ki in test [1] is 35 nM.

Take `O=C(CCc1ccc(Nc2ccccc2)cc1)c1ncc(-c2ccccn2)o1`: the Ratio IC50 was greater than 20000 in test [2] and 120 in test [3].

On to `O=C(CCC(O)CCCc1ccccc1)c1ncc(-c2ccccn2)o1` (stereo unspecified), for which the inhibition constant (Ki) in test [1] is 500 nM.

With `O=C(CCCCCCc1cccc2ccccc12)c1ncc(-c2ccccn2)o1`, the Ratio IC50 was greater than 10000 in test [2] and 30 in test [3].

Take `COC(=O)CCCC(=O)c1ncc(-c2ccccn2)o1`: in test [1], the Ki worked out at 7000 nM.

In the case of `O=C(CCC(=O)c1ncc(-c2ccccn2)o1)NCCc1ccccc1`, in test [1], the Ki is greater than 100000 nM.

Turning to `O=C(CCCCC#Cc1ccccc1C(F)(F)F)c1ncc(-c2ccccn2)o1`, the Ki in test [1] was found to be 16 nM.

Take `O=C(CCCCC#Cc1ccccn1)c1ncc(-c2ccccn2)o1`: the Ki in test [1] came out at 280 nM.

Consider `O=C(CCOCCCc1ccccc1)c1ncc(-c2ccccn2)o1`, for which, in test [1], the Ki was 90 nM.

For `O=C(O)c1cccc(CCCCCCC(=O)c2ncc(-c3ccccn3)o2)c1`, the Ki in test [1] is greater than 600 nM.

As for `O=C(C[S+]([O-])CCCCc1ccccc1)c1ncc(-c2ccccn2)o1` (stereo unspecified), the Ki in test [1] worked out at 1000 nM.

Take `O=C(CCCC(=O)c1ncc(-c2ccccn2)o1)NCc1ccccc1`: the Ki in test [1] was found to be 20000 nM.

For the compound `O=C(CCCCC#Cc1ccc(Cl)cc1)c1ncc(-c2ccccn2)o1`, the Ki in test [1] is 20 nM.

Consider `CN(CCCCCC(=O)c1ncc(-c2ccccn2)o1)c1ccccc1`, for which the Ki in test [1] stood at 40 nM.

On to `O=C(CCCCC#Cc1ccc(F)cc1)c1ncc(-c2ccccn2)o1`, for which the Ki in test [1] was determined as 36 nM.

Turning to `O=C(CCCCC#Cc1ccccc1Cl)c1ncc(-c2ccccn2)o1`, the Ki in test [1] was found to be 13 nM.

Take `O=C(CCCCC#Cc1cccc(Cl)c1)c1ncc(-c2ccccn2)o1`: the Ki in test [1] worked out at 7 nM.
